What was measured:
Experiment in all cases: KinomeScan kinase profiling
Format in all cases: binding
MST3 = molecular target: T1, MST3 (Homo sapiens, UniProt Q9Y6E0)
T1 construct: host or cells: T7 phage in E. coli host derived from BL21
Method in brief: (§1)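 Kinases were expressed as T7 phage fusions in a BL21-derived E. coli host and the cleared lysates were used. Ligand beads were blocked with biotin and buffer (1% BSA, 0.05% Tween 20, 1 mM DTT). Compounds came from 40× DMSO stocks, and phage in the eluates was titred by qPCR.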

TYRO3 = molecular target: T2, TYRO3 (Homo sapiens, UniProt Q06418)
T2 construct: purchased Ambit Biosciences Corp (KinomeScan); host or cells: E. coli host derived from the BL21 strain (T7 phage lysate)
Method in brief: as §1

DMPK = molecular target: T3, DMPK (Homo sapiens, UniProt Q09013)
T3 construct: purchased Ambit Biosciences Corp (KinomeScan); host or cells: T7 phage in E. coli host derived from BL21
Method in brief: as §1

MEK3 = molecular target: T4, MEK3 (Homo sapiens, UniProt P46734)
T4 construct: host or cells: E. coli derived from BL21, infected with T7 phage
Method in brief: as §1

MLK1 = molecular target: T5, MLK1 (Homo sapiens, UniProt P80192)
T5 construct: host or cells: T7 phage in E. coli host derived from BL21
Method in brief: as §1

MAP4K5 = molecular target: T6, MAP4K5 (Homo sapiens, UniProt Q9Y4K4)
T6 construct: host or cells: E. coli derived from BL21, infected with T7 phage
Method in brief: as §1

ERK8 = molecular target: T7, ERK8 (Homo sapiens, UniProt Q8TD08)
T7 construct: host or cells: E. coli host derived from BL21, T7 phage lysate
Method in brief: as §1

[1] = molecular target: T8, RPS6KA5 (Kin.Dom.-2-C-terminal) (Homo sapiens, UniProt O75582)
T8 construct: RPS6KA5 (Kin.Dom.-2-C-terminal); host or cells: E. coli host derived from BL21, T7 phage lysate
Method in brief: as §1

MST2 = molecular target: T9, MST2 (Homo sapiens, UniProt Q13188)
T9 construct: host or cells: T7 phage in E. coli host derived from BL21
Method in brief: as §1

CSNK1G1 = molecular target: T10, CSNK1G1 (Homo sapiens, UniProt Q9HCP0)
T10 construct: purchased Ambit Biosciences Corp (KinomeScan); host or cells: T7 phage in E. coli host derived from BL21
Method in brief: as §1

AMPK-alpha2 = molecular target: T11, AMPK-alpha2 (Homo sapiens, UniProt P54646)
T11 construct: host or cells: E. coli host derived from BL21 (T7 phage lysate)
Method in brief: as §1

CAMK1 = molecular target: T12, CAMK1 (Homo sapiens, UniProt Q14012)
T12 construct: purchased Ambit Biosciences Corp (KinomeScan); host or cells: E. coli host derived from the BL21 strain, T7 phage
Method in brief: as §1

[2] = molecular target: T13, JAK2 (JH1domain-catalytic) (Homo sapiens, UniProt O60674)
T13 construct: JAK2 (JH1domain-catalytic); host or cells: T7 phage in E. coli host derived from BL21
Method in brief: as §1

CLK2 = molecular target: T14, CLK2 (Homo sapiens, UniProt P49760)
T14 construct: host or cells: T7 phage in E. coli (BL21-derived)
Method in brief: as §1

TEC = molecular target: T15, TEC (Homo sapiens, UniProt P42680)
T15 construct: host or cells: E. coli host derived from the BL21 strain, T7 phage lysate
Method in brief: as §1

[3] = molecular target: T16, RPS6KA6 (Kin.Dom.-2-C-terminal) (Homo sapiens, UniProt Q9UK32)
T16 construct: RPS6KA6 (Kin.Dom.-2-C-terminal); host or cells: E. coli host derived from the BL21 strain, T7 phage lysate
Method in brief: as §1

TRKC = molecular target: T17, TRKC (Homo sapiens, UniProt Q16288)
T17 construct: purchased Ambit Biosciences Corp (KinomeScan); host or cells: E. coli host derived from the BL21 strain (T7 phage lysate)
Method in brief: as §1

FLT3 (N8411) = molecular target: T18, FLT3 (N8411) (Homo sapiens, UniProt P36888, N841I)
T18 construct: host or cells: E. coli host derived from BL21, infected with T7 phage
Method in brief: as §1

STK36 = molecular target: T19, STK36 (Homo sapiens, UniProt Q9NRP7)
T19 construct: host or cells: E. coli host derived from the BL21 strain, T7 phage lysate
Method in brief: as §1

p38-gamma = molecular target: T20, p38-gamma (Homo sapiens, UniProt P53778)
T20 construct: host or cells: E. coli host derived from the BL21 strain, infected with T7 phage
Method in brief: as §1

T16 sequence (Q9UK32 426-683 limits assumed): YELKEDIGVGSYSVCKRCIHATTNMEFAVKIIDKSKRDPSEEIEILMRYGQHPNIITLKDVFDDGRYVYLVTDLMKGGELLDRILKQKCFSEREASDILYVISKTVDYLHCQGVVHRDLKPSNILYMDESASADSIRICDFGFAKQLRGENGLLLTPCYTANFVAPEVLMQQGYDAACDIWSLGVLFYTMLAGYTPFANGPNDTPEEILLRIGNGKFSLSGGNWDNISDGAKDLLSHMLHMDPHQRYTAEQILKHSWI
T8 sequence (O75582 426-687 limits assumed): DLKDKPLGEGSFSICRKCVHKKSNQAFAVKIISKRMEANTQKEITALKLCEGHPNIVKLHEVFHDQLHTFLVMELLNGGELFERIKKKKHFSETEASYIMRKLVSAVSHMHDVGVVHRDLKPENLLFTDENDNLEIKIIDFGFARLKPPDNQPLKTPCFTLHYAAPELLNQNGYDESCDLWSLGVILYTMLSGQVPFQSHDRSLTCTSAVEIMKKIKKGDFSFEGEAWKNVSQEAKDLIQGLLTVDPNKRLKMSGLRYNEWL
T1 sequence (Q9Y6E0 whole entry): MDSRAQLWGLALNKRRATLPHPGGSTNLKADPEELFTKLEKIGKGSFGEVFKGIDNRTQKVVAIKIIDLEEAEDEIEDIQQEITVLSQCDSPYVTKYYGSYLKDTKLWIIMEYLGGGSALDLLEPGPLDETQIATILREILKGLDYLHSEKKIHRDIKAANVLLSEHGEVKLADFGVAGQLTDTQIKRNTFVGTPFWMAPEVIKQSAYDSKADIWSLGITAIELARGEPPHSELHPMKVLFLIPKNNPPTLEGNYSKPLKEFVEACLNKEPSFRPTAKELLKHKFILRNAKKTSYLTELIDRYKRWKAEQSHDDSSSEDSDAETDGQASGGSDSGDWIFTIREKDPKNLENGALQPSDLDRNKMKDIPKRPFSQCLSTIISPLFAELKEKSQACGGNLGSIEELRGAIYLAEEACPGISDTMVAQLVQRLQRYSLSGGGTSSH
T5 sequence (P80192 whole entry): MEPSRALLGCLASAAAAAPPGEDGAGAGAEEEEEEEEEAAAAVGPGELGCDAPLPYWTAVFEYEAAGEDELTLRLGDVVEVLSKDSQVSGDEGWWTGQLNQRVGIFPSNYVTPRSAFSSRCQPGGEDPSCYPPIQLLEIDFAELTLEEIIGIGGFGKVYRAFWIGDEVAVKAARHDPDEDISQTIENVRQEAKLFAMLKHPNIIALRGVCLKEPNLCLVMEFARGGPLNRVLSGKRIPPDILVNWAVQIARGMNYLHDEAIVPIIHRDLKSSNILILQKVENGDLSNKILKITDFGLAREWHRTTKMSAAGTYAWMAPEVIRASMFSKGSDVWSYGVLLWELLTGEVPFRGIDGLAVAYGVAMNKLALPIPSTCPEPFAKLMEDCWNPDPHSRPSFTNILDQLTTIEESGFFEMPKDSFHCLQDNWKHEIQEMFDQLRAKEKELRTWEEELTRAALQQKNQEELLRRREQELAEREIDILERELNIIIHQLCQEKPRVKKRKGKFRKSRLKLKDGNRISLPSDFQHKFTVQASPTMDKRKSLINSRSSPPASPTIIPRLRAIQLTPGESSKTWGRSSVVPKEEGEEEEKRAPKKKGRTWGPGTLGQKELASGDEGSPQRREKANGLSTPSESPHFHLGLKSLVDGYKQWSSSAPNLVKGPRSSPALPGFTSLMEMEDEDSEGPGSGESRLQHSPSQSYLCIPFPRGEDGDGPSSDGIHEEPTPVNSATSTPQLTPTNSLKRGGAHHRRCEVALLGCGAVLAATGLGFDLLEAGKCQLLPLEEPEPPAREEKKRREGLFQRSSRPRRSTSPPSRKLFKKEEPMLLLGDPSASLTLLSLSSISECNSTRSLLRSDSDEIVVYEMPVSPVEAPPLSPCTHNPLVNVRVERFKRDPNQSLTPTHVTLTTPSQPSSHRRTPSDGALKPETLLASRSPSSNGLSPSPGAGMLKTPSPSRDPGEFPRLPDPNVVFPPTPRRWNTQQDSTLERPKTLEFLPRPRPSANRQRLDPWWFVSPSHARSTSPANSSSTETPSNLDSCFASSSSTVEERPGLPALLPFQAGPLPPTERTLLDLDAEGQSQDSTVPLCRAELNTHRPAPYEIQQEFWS
T4 sequence (P46734 whole entry): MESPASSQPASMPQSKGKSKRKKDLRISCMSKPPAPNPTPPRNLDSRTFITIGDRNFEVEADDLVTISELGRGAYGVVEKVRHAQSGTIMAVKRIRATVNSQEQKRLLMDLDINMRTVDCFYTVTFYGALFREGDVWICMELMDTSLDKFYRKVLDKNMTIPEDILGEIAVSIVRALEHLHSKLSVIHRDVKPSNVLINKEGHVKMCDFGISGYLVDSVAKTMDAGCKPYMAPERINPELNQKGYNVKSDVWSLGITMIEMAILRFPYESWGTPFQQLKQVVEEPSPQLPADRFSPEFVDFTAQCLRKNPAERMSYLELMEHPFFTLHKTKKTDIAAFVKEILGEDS
T14 sequence (P49760 whole entry): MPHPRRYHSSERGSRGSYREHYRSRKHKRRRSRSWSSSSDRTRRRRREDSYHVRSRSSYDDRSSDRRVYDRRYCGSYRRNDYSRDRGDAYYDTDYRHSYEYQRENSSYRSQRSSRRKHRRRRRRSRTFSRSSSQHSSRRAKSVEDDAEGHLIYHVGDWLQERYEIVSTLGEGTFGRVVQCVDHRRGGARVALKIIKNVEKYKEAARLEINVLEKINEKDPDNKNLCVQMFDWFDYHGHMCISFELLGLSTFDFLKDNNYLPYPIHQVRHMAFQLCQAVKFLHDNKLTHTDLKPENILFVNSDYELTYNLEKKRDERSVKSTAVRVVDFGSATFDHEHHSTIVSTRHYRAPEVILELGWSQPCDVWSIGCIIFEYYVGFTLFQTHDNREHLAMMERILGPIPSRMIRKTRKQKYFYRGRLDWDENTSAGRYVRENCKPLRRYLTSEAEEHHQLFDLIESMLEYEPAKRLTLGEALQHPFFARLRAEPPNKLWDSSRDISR
T15 sequence (P42680 whole entry): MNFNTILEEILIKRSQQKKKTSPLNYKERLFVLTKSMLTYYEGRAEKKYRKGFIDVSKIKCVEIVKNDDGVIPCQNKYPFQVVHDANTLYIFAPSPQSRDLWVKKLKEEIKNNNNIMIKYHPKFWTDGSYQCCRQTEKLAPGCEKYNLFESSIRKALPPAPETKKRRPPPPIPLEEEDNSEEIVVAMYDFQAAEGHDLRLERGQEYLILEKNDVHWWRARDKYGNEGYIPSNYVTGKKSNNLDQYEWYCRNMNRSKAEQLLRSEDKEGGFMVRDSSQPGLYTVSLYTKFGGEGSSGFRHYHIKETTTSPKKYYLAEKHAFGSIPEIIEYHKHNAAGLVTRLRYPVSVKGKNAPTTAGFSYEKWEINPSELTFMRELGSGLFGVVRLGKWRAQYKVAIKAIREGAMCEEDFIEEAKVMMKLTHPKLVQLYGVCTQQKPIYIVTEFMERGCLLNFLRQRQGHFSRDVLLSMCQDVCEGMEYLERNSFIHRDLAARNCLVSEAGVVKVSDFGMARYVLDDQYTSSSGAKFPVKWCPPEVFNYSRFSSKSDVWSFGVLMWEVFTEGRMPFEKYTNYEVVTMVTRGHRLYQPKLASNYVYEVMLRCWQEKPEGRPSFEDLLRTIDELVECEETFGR
T6 sequence (Q9Y4K4 whole entry): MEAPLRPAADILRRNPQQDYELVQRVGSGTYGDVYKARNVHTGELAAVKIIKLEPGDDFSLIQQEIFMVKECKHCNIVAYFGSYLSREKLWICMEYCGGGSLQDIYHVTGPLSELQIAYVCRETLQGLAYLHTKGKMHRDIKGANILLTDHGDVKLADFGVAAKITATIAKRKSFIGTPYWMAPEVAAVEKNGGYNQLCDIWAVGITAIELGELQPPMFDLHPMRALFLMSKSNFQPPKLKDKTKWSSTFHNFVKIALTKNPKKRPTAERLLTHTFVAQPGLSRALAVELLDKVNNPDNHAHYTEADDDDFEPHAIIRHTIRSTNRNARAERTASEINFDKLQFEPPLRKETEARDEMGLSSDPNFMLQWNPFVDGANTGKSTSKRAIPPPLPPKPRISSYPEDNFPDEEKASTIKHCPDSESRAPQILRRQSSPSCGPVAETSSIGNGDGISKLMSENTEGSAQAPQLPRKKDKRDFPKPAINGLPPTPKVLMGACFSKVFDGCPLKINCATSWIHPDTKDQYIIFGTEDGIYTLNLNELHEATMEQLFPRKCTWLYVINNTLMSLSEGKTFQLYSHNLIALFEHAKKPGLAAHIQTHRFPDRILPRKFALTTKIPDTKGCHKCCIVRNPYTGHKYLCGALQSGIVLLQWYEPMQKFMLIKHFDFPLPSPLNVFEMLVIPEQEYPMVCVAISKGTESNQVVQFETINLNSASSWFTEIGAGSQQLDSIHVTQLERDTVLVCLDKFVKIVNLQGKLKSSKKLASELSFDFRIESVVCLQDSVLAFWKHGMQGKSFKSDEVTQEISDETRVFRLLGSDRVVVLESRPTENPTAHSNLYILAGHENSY
T9 sequence (Q13188 whole entry): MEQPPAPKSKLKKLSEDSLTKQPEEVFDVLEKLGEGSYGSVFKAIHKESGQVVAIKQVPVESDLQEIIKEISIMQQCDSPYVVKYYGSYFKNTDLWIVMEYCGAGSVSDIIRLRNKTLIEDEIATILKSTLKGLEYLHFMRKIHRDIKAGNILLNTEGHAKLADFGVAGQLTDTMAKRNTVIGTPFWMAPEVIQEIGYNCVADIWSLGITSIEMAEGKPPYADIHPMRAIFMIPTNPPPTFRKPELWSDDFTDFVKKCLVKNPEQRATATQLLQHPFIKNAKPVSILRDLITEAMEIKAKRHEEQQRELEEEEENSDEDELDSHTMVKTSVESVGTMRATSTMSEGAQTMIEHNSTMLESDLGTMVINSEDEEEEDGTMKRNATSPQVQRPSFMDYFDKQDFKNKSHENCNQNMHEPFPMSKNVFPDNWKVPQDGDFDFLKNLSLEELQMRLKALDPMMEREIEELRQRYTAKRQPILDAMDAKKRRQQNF

Compound: C#Cc1cccc(Nc2ncnc3cc(OC)c(OCCCN4CCOCC4)cc23)c1 [NRC-2694, N-(3-ethylnylphenyl)-7-methoxy-6-[3-(4-morpholinyl)propoxy]-4-quinazolinamine]
- % Ctrl @ 10000 nM (MST3): 42 % Ctrl
- % Ctrl @ 10000 nM (TYRO3): 42 % Ctrl
- % Ctrl @ 10000 nM (DMPK): 6.8 % Ctrl
- % Ctrl @ 10000 nM (MEK3): 100 % Ctrl
- % Ctrl @ 10000 nM (MLK1): 100 % Ctrl
- % Ctrl @ 10000 nM (MAP4K5): 23 % Ctrl
- % Ctrl @ 10000 nM (ERK8): 62 % Ctrl
- % Ctrl @ 10000 nM [1]: 57 % Ctrl
- % Ctrl @ 10000 nM (MST2): 85 % Ctrl
- % Ctrl @ 10000 nM (CSNK1G1): 55 % Ctrl
- % Ctrl @ 10000 nM (AMPK-alpha2): 61 % Ctrl
- % Ctrl @ 10000 nM (CAMK1): 65 % Ctrl
- % Ctrl @ 10000 nM [2]: 38 % Ctrl
- % Ctrl @ 10000 nM (CLK2): 64 % Ctrl
- % Ctrl @ 10000 nM (TEC): 90 % Ctrl
- % Ctrl @ 10000 nM [3]: 55 % Ctrl
- % Ctrl @ 10000 nM (TRKC): 80 % Ctrl
- % Ctrl @ 10000 nM (FLT3 (N8411)): 16 % Ctrl
- % Ctrl @ 10000 nM (STK36): 4.6 % Ctrl
- % Ctrl @ 10000 nM (p38-gamma): 97 % Ctrl

Source: patent US9050341B2, “Methods of treating drug resistant and other tumors by administering 6,7-dialkoxy quinazoline derivatives” (NATCO PHARMA LIMITED, priority 2009, dated 2015)
